Six compounds from ChEMBL document CHEMBL1138919, “Binding of methoxy-substituted N1-benzenesulfonylindole analogs at human 5-HT6 serotonin receptors” (Bioorg Med Chem Lett, 2006) can be followed below.

The target in this assay is 5-hydroxytryptamine receptor 6 (Homo sapiens, UniProt P50406). Put plainly: Binding affinity to human 5HT6 receptor.

Structures are written as SMILES.

5-hydroxytryptamine receptor 6, sequence (P50406 whole entry): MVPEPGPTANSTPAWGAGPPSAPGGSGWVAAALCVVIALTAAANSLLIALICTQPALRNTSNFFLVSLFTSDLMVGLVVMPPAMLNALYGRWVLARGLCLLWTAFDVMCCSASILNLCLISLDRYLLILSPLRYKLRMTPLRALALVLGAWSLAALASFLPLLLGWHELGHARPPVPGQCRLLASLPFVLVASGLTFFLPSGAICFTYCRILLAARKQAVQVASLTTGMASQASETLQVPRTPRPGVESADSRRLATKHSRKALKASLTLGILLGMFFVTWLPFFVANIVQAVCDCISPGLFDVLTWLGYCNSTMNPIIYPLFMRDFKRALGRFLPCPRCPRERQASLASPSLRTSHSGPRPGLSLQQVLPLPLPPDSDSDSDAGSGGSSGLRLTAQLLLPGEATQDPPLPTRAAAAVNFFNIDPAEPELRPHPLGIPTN

`COc1cc(OC)c2ccn(S(=O)(=O)c3ccc(N)cc3)c2c1`: the Ki (commonly the dissociation constant of the complex between target and ligand, obtained from inhibition or displacement) was determined as 0.8 nM. This counts as sub-nanomolar.
`COc1ccc2ccn(S(=O)(=O)c3ccc(N)cc3)c2c1`: the Ki came to 1.8 nM.
For `COc1cc(OC)c2c3c(n(S(=O)(=O)c4ccc(N)cc4)c2c1)CCCC3` the value was 210 nM.
`COc1cccc2c1ccn2S(=O)(=O)c1ccc(N)cc1` registered an inhibition constant (Ki) of 3.3 nM.
For `CNc1cccc2c1c1c(n2S(=O)(=O)c2ccc(N)cc2)CCCC1` the value was 165 nM; for `CNc1ccc2c3c(n(S(=O)(=O)c4ccc(N)cc4)c2c1)CCCC3`, 205 nM.
